# Reference: patent publication US20240246932A1 (Merck Sharp & Dohme LLC, priority 2021, published 2024)
# Target: human NaV 1.8 channels stably expressed in HEK 293 cells (Homo sapiens (Human), UniProt Q9Y5Y9)
# Test: Nav1.8 Qube automated patch-clamp assay
# Type: cell-based
# Conditions: human NaV1.8 in HEK 293 cells, whole-cell voltage clamp, room temperature; read-out: IC50 values (nM) for Examples in the Nav1.8 Qube Assay
# How it was run: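 Whole-cell voltage clamp at room temperature on HEK293 cells; from −90 mV, a 10 s 1 Hz train of 20 ms pulses to 10 mV (repolarising to −67 mV) was applied. Peak currents at pulses 1 and 10 gave resting- and inactivated-state inhibition; IC50 fitted by Hill equation. Internal CsF/CsCl buffer.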
# Sequence of human NaV 1.8 channels stably expressed in HEK 293 cells (Q9Y5Y9 whole entry): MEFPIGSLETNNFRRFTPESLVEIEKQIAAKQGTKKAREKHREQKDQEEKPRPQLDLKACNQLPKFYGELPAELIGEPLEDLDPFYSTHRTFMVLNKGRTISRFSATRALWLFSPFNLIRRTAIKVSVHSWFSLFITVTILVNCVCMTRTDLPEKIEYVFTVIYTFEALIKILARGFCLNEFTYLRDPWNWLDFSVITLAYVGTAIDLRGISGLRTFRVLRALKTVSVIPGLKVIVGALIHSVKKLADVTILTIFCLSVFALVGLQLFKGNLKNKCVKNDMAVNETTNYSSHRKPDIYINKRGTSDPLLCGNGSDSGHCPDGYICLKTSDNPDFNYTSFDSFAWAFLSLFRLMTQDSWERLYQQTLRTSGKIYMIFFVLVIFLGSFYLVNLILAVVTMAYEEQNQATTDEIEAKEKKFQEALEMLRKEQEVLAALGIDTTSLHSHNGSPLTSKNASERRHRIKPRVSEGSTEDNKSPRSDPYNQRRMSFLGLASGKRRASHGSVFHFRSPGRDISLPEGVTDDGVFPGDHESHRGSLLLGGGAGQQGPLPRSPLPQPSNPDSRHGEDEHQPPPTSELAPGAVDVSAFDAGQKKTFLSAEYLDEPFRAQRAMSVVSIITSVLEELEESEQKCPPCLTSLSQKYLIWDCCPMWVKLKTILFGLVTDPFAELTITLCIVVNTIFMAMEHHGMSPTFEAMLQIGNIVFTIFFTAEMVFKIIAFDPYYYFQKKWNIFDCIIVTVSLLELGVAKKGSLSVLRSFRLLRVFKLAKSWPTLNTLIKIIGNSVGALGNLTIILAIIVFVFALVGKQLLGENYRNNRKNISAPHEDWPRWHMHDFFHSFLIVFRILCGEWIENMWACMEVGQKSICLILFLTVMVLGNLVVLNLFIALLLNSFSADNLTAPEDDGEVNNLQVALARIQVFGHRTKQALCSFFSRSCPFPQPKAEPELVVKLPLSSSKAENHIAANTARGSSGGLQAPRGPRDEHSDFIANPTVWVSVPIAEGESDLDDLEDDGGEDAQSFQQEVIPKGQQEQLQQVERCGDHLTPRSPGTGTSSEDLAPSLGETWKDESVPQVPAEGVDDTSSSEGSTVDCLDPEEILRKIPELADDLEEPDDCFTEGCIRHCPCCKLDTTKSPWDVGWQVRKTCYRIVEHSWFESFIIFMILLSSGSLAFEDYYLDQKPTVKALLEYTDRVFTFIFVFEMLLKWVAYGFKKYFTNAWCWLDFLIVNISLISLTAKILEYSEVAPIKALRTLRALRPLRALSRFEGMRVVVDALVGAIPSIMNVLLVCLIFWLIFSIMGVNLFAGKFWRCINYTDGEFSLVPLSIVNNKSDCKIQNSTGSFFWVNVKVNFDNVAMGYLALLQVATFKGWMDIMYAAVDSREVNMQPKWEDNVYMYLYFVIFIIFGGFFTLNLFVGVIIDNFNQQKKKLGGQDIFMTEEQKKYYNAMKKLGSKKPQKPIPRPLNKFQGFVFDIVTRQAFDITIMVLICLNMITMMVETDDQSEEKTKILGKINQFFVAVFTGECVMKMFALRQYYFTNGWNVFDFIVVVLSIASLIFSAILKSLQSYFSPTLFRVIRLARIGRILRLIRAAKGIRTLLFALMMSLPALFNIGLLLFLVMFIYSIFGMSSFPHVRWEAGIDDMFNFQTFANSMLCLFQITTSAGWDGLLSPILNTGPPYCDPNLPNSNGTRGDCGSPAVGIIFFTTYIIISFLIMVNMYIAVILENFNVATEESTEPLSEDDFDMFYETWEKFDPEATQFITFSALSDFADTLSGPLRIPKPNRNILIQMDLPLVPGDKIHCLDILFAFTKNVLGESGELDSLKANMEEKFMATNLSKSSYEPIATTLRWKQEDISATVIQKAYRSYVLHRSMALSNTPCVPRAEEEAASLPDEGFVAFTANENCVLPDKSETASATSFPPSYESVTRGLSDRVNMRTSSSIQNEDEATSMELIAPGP
row,SMILES,IC50 [nM]
1,"C[C@@H]1C(=O)NCCN1C(=O)NC(c1ccc(C(F)(F)F)nc1)c1ccc(Cl)c(Cl)c1F (single isomer, unassigned) [Example 29A, (2R)-N-((R or S)-(3,4-dichloro-2-fluoro-phenyl)(6-(trifluoro-methyl)pyridin-3-yl)methyl)-2-methyl-3-oxopiperazine-1-carboxamide]",21.4
2,"C[C@@H]1C(=O)NCCN1C(=O)NC(c1ccc(Cl)c(F)c1)c1ccc(F)c(C(F)(F)F)n1 (single isomer, unassigned) [Example 53A, (2R)-N-((R or S)-(4-chloro-3-fluoro-phenyl)(5-fluoro-6-(trifluoromethyl)pyridin-2-yl)methyl)-2-methyl-3-oxopiperazine-1-carboxamide]",68.9
3,"C[C@@H]1C(=O)NCCN1C(=O)NC(c1ccc(OC(F)(F)F)c(Cl)c1)c1cnc(C(F)(F)F)c(Cl)c1 (single isomer, unassigned) [Example 22A, (2R)-N-((R or S)-(3-chloro-4-(trifluoro-methoxy)phenyl)(5-chloro-6-(trifluoro-methyl)pyridin-3-yl)methyl)-2-methyl-3-oxopiperazine-1-carboxamide]",0.31
4,"C[C@@H]1C(=O)NCCN1C(=O)NC(c1cnc(OC(F)F)s1)c1ccc(F)c(Cl)c1F (single isomer, unassigned) [Example 14B, (2R)-N-((S or R)-(3-chloro-2,4-difluorophenyl)(2-(difluoromethoxy)thiazol-5-yl)methyl)-2-methyl-3-oxopiperazine-1-carboxamide]",101
5,"C[C@@H]1C(=O)NCCN1C(=O)NC(c1ccc(F)c(Cl)c1)c1cnc(C(F)(F)F)c(Cl)c1 (single isomer, unassigned) [Example 26B, (2R)-N-((S or R)-(3-chloro-4-fluoro-phenyl)(5-chloro-6-(trifluoromethyl)pyridin-3-yl)methyl)-2-methyl-3-oxopiperazine-1-carboxamide]",3.81
6,"C[C@@H]1C(=O)NCCN1C(=O)NC(c1ccc(OC(F)F)nc1)c1ccc(F)c(Cl)c1F (single isomer, unassigned) [Example 31B, (2R)-N-((S or R)-(3-chloro-2,4-difluoro-phenyl)(6-(difluoro-methoxy)pyridin-3-yl)methyl)-2-methyl-3-oxopiperazine-1-carboxamide]",16.1
7,"C[C@@H]1C(=O)NCCN1C(=O)NC(c1ccc(F)c(Cl)c1)c1cc(C(F)(F)F)n[nH]1 (single isomer, unassigned) [Example 85A]",57.8
8,"C[C@@H]1C(=O)NCCN1C(=O)NC(c1ccc(OC(F)(F)F)cc1)c1ccc(F)c(C(F)(F)F)n1 (single isomer, unassigned) [Example 55B, (2R)-N-((S or R)-(5-fluoro-6-(trifluoro-methyl)pyridin-2-yl)(4-(trifluoromethoxy)phenyl)methyl)-2-methyl-3-oxopiperazine-1-carboxamide]",15.7
9,"O=C1CN(C(=O)NC(c2ccc(Cl)c(F)c2)c2ccc(F)c(C(F)(F)F)n2)CCN1 (single isomer, unassigned) [Example 54A, N-((R or S)-(4-chloro-3-fluorophenyl)(5-fluoro-6-(trifluoromethyl)pyridin-2-yl)methyl)-3-oxopiperazine-1-carboxamide]",285
10,"O=C1CN(C(=O)NC(c2ccc(Cl)c(F)c2)c2ccc(F)c(C(F)(F)F)n2)CCN1 (single isomer, unassigned) [Example 54B, N-((S or R)-(4-chloro-3-fluorophenyl)(5-fluoro-6-(trifluoromethyl)pyridin-2-yl)methyl)-3-oxopiperazine-1-carboxamide]",4.14
11,"C[C@@H]1C(=O)NCCN1C(=O)NC(c1cnc(OC(F)F)s1)c1ccc(F)c(Cl)c1F (single isomer, unassigned) [Example 14A, (2R)-N-((R or S)-(3-chloro-2,4-difluorophenyl)(2-(difluoromethoxy)thiazol-5-yl)methyl)-2-methyl-3-oxopiperazine-1-carboxamide]",5.57
12,"C[C@@H]1C(=O)NCCN1C(=O)NC(c1ccc(C(F)(F)F)nc1)c1ccc(Cl)c(Cl)c1 (single isomer, unassigned) [Example 18A, (2R)-N-((R or S)-(3,4-dichlorophenyl)(6-(trifluoromethyl)pyridin-3-yl)methyl)-2-methyl-3-oxopiperazine-1-carboxamide]",3.89
13,"O=C1CN(C(=O)NC(c2ccc(F)c(Cl)c2)c2cccc(C(F)(F)F)n2)[C@@H](CF)CN1 (single isomer, unassigned) [Example 47A, (2R)-N-((R or S)-(3-chloro-4-fluoro-phenyl)(6-(trifluoro-methyl)pyridin-2-yl)methyl)-2-(fluoromethyl)-5-oxopiperazine-1-carboxamide]",2310
14,"CC1(C)C(=O)NCCN1C(=O)NC(c1ccc(F)c(Cl)c1)c1cccc(C(F)(F)F)n1 (single isomer, unassigned) [Example 43, N-((R or S)-(3-chloro-4-fluorophenyl)(6-(trifluoromethyl)pyridin-2-yl)methyl)-2,2-dimethyl-3-oxopiperazine-1-carboxamide]",230
15,"C[C@@H]1C(=O)NCCN1C(=O)NC(c1ccc(F)c(Cl)c1)c1ccc(F)c(OCC(F)(F)F)n1 (single isomer, unassigned) [Example 70A]",51.4
16,"C[C@@H]1C(=O)NCCN1C(=O)NC(c1ccc(OCC(F)(F)F)nc1)c1ccc(F)c(Cl)c1F (single isomer, unassigned) [Example 1A]",1.09
17,"C[C@@H]1C(=O)NCCN1C(=O)NC(c1ccc(C(F)F)nc1)c1ccc(F)c(Cl)c1F (single isomer, unassigned) [Example 32A, (2R)-N-((R or S)-(3-chloro-2,4-difluoro-phenyl)(6-(difluoro-methyl)pyridin-3-yl)methyl)-2-methyl-3-oxopiperazine-1-carboxamide]",96.8
18,"C[C@@H]1C(=O)NCCN1C(=O)NC(c1ccc(Cl)cc1)c1cccc(C(F)(F)F)n1 (single isomer, unassigned) [Example 9A, (2R)-N-((R or S)-(4-chlorophenyl)(6-(trifluoromethyl)pyridin-2-yl)methyl)-2-methyl-3-oxo-piperazine-1-carboxamide]",61.6
19,"C[C@@H]1C(=O)NCCN1C(=O)NC(c1ccc(Cl)c(C#N)c1)c1ccc(F)c(C(F)(F)F)n1 (single isomer, unassigned) [Example 52A, (2R)-N-((R or S)-(4-chloro-3-cyano-phenyl)(5-fluoro-6-(trifluoromethyl)pyridin-2-yl)methyl)-2-methyl-3-oxopiperazine-1-carboxamide]",5.79
20,"C[C@@H]1C(=O)NCCN1C(=O)NC(c1ccc(Cl)cc1)c1ccnc(C(F)(F)F)n1 (single isomer, unassigned) [Example 68A]",34.9
21,"C[C@@H]1C(=O)NCCN1C(=O)NC(c1ccc(OC(F)(F)F)nc1)c1ccc(F)c(Cl)c1F (single isomer, unassigned) [Example 4A, (2R)-N-((R or S)-(3-chloro-2,4-difluorophenyl)(6-(trifluoromethoxy)pyridin-3-yl)methyl)-2-methyl-3-oxopiperazine-1-carboxamide]",3.9
22,"C[C@@H]1C(=O)NCCN1C(=O)NC(c1ccc(C(F)(F)F)nc1)c1ccc(Cl)c(C(F)(F)F)n1 (single isomer, unassigned) [Example 81B, (2R)-N-((S or R)-(5-chloro-6-(trifluoromethyl)pyridin-2-yl)(6-(trifluoro-methyl)pyridin-3-yl)methyl)-2-methyl-3-oxopiperazine-1-carboxamide]",110
23,"C[C@@H]1C(=O)NCCN1C(=O)NC(c1cnc(C(F)(F)F)nc1)c1ccc(Cl)c(Cl)c1 (single isomer, unassigned) [Example 28A, (2R)—N—((R or S)-(3,4-dichlorophenyl)(2-(trifluoromethyl)pyrimidin-5-yl)methyl)-2-methyl-3-oxopiperazine-1-carboxamide]",10.8
24,"C[C@@H]1C(=O)NCCN1C(=O)NC(c1ccc(OC2CC2)c(F)c1)c1ccc(F)c(C(F)(F)F)n1 (single isomer, unassigned) [Example 59B, (2R)-N-((S or R)-(4-cyclopropoxy-3-fluorophenyl)(5-fluoro-6-(trifluoromethyl)pyridin-2-yl)methyl)-2-methyl-3-oxopiperazine-1-carboxamide]",31.8
25,"C[C@@H]1C(=O)NCCN1C(=O)NC(c1ccc(OC(F)(F)F)cc1)c1cnc(C(F)(F)F)c(Cl)c1 (single isomer, unassigned) [Example 20A, (2R)-N-((R or S)-(5-chloro-6-(trifluoro-methyl)pyridin-3-yl)(4-(trifluoromethoxy)phenyl)methyl)-2-methyl-3-oxopiperazine-1-carboxamide]",4.01
26,"C[C@@H]1C(=O)NCCN1C(=O)NC(c1ccc(OCC(F)(F)F)nc1)c1ccc(F)c(Cl)c1 (single isomer, unassigned) [Example 3B, (2R)-N-((S or R)-(3-chloro-4-fluorophenyl)(6-(2,2,2-trifluoro-ethoxy)pyridin-3-yl)methyl)-2-methyl-3-oxopiperazine-1-carboxamide]",21.9
27,"C[C@@H]1C(=O)NCCN1C(=O)NC(c1ccc(OCC(F)(F)F)cc1)c1ccc(F)c(C(F)(F)F)n1 (single isomer, unassigned) [Example 57B, (2R)-N-((S or R)-(5-fluoro-6-(trifluoro-methyl)pyridin-2-yl)(4-(2,2,2-trifluoro-ethoxy)phenyl)methyl)-2-methyl-3-oxopiperazine-1-carboxamide]",125
28,"C[C@@H]1C(=O)NCCN1C(=O)NC(c1cnc(C(F)(F)F)c(Cl)c1)c1ccc(F)c(C(F)(F)F)n1 (single isomer, unassigned) [Example 82B]",3.76
29,"C[C@@H]1C(=O)NCCN1C(=O)NC(c1cnc(C(F)(F)F)c(Cl)c1)c1ccc(Cl)c(C#N)c1 (single isomer, unassigned) [Example 23B, (2R)-N-((S or R)-(4-chloro-3-cyano-phenyl)(5-chloro-6-(trifluoromethyl)pyridin-3-yl)methyl)-2-methyl-3-oxopiperazine-1-carboxamide]",6.06
